Data taken from patent US6737383B1, “Herbicidal oxadiazolidines” (priority 1999, dated 2004).

Assays:
[1] = test system: wild oat; assay: Test B pre/postemergence wild oat; format: in vivo, Avena fatua
In short: (§1)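 Test chemicals in a non-phytotoxic solvent mixture with surfactant were sprayed preemergence onto planted seeds and postemergence onto plants 2 to 18 cm tall (1- to 4-leaf stage). After twelve to sixteen days in a greenhouse, injury was visually rated against untreated controls from 0 (no effect) to 10 (complete control).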

[2] = test system: duck salad; assay: Test B flood test duck salad; format: in vivo, Heteranthera limosa
In short: (§2)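 Read-out is a visual response score from 0 (no effect) to 10 (complete control), assigned by comparison with untreated controls. Treatment was applied at the 2-leaf stage, and plants stayed in the greenhouse for twelve to sixteen days before scoring.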

[3] = test system: rice; assay: Test B flood test rice; format: in vivo, Oryza sativa
In short: as §2

[4] = test system: velvetleaf; assay: Test B pre/postemergence velvetleaf; format: in vivo, Abutilon theophrasti
In short: as §1

[5] = test system: soybean; assay: Test B pre/postemergence soybean; format: in vivo, Glycine max
In short: as §1

[6] = test system: pigweed; assay: Test B pre/postemergence pigweed; format: in vivo, Amaranthus retroflexus
In short: as §1

[7] = test system: blackgrass; assay: Test B pre/postemergence blackgrass; format: in vivo, Alopecurus myosuroides
In short: as §1

[8] = test system: morningglory; assay: Test B pre/postemergence morningglory; format: in vivo, Ipomoea hederacea
In short: as §1

[9] = test system: surinam grass; assay: Test B pre/postemergence surinam grass; format: in vivo, Brachiaria decumbens
In short: as §1

[10] = test system: bedstraw; assay: Test B pre/postemergence bedstraw; format: in vivo, Galium aparine
In short: as §1

[11] = test system: corn; assay: Test B pre/postemergence corn; format: in vivo, Zea mays
In short: as §1

[12] = test system: purple nutsedge; assay: Test B pre/postemergence purple nutsedge; format: in vivo, Cyperus rotundus
In short: as §1

[13] = test system: smallflower flatsedge; assay: Test B flood test smallflower flatsedge; format: in vivo, Cyperus difformis
In short: as §2

[14] = test system: giant foxtail; assay: Test B pre/postemergence giant foxtail; format: in vivo, Setaria faberii
In short: as §1

[15] = test system: wheat; assay: Test B pre/postemergence wheat; format: in vivo, Triticum aestivum
In short: as §1

[16] = test system: crabgrass; assay: Test B pre/postemergence crabgrass; format: in vivo, Digitaria sanguinalis
In short: as §1

[17] = Postemergence, Rate 125 g/ha, scale of 0 to 10 where 0 is no effect and 10 is complete control
[18] = Preemergence, Rate 62 g/ha, scale 0 to 10 (0 no effect, 10 complete control)
[19] = Preemergence, Rate 125 g/ha, 0 is no effect, 10 is complete control
[20] = Preemergence, Rate 250 g/ha, scale 0 to 10, 0 is no effect, 10 is complete control
[21] = Preemergence, Rate 500 g/ha, scale 0 to 10 (0 no effect, 10 complete control)
[22] = Rate 62 g/ha, Postemergence, scale of 0 to 10 where 0 is no effect and 10 is complete control
[23] = Rate 250 g/ha, Postemergence, scale 0 to 10, 0 is no effect, 10 is complete control
[24] = Rate 500 g/ha, Postemergence, scale 0 to 10
[25] = Rate 62 g/ha, headed Pre-emergence (flood test species), scale 0 to 10 (0 no effect, 10 complete control)
[26] = Rate 125 g/ha, Pre-emergence, flood test species, scale 0 to 10 where 0 is no effect and 10 is complete control
[27] = Rate 250 g/ha, headed Pre-emergence (flood test species), scale 0 to 10 (0 no effect, 10 complete control)
[28] = Rate 500 g/ha, headed Pre-emergence (flood test species), scale 0 to 10 (0 no effect, 10 complete control)

Compound: CC(C)N(C(=O)n1oc(=O)n(C(C)C)c1=O)c1ccc(F)cc1 [Compound 131]
- Wild oats plant response rating [1, 17]: 3
- Wild oats plant response rating [1, 18]: 10
- Wild oats plant response rating (0 to 10 scale) [1, 19]: 10
- Wild oats plant response rating [1, 20]: 10
- Wild oats plant response rating [1, 21]: 10
- Wild oats plant response rating [1, 22]: 2
- Plant response rating, Wild oats [1, 23]: 9
- Wild oats plant response rating [1, 24]: 10
- Ducksalad plant response rating [2, 25]: 0
- Ducksalad plant response rating [2, 26]: 0
- Ducksalad plant response rating [2, 27]: 7
- Plant response rating, Ducksalad [2, 28]: 9
- Rice plant response rating [3, 25]: 0
- Rice plant response rating [3, 26]: 0
- Rice plant response rating [3, 27]: 5
- Plant response rating, Rice [3, 28]: 8
- Velvetleaf plant response rating [4, 17]: 7
- Velvetleaf plant response rating [4, 18]: 7
- Velvetleaf plant response rating (0 to 10 scale) [4, 19]: 8
- Velvetleaf plant response rating [4, 20]: 9
- Velvetleaf plant response rating [4, 21]: 10
- Velvetleaf plant response rating [4, 22]: 0
- Plant response rating, Velvetleaf [4, 23]: 8
- Velvetleaf plant response rating [4, 24]: 8
- Soybean plant response rating [5, 17]: 7
- Soybean plant response rating [5, 18]: 2
- Soybean plant response rating (0 to 10 scale) [5, 19]: 3
- Soybean plant response rating [5, 20]: 8
- Soybean plant response rating [5, 21]: 8
- Soybean plant response rating [5, 22]: 5
- Plant response rating, Soybean [5, 23]: 8
- Soybean plant response rating [5, 24]: 8
- Redroot pigweed plant response rating [6, 17]: 6
- Redroot pigweed plant response rating [6, 18]: 7
- Redroot pigweed plant response rating (0 to 10 scale) [6, 19]: 10
- Redroot pigweed plant response rating [6, 20]: 10
- Redroot pigweed plant response rating [6, 21]: 10
- Redroot pigweed plant response rating [6, 22]: 2
- Plant response rating, Redroot pigweed [6, 23]: 8
- Redroot pigweed plant response rating [6, 24]: 10
- Blackgrass plant response rating [7, 17]: 8
- Blackgrass plant response rating [7, 18]: 10
- Blackgrass plant response rating (0 to 10 scale) [7, 19]: 10
- Blackgrass plant response rating [7, 20]: 10
- Blackgrass plant response rating [7, 21]: 10
- Blackgrass plant response rating [7, 22]: 8
- Plant response rating, Blackgrass [7, 23]: 8
- Blackgrass plant response rating [7, 24]: 9
- Morningglory plant response rating [8, 17]: 7
- Morningglory plant response rating [8, 18]: 3
- Morningglory plant response rating (0 to 10 scale) [8, 19]: 3
- Morningglory plant response rating [8, 20]: 5
- Morningglory plant response rating [8, 21]: 7
- Morningglory plant response rating [8, 22]: 7
- Plant response rating, Morningglory [8, 23]: 8
- Morningglory plant response rating [8, 24]: 10
- B. signalgrass plant response rating [9, 17]: 5
- B. signalgrass plant response rating [9, 18]: 7
- B. signalgrass plant response rating (0 to 10 scale) [9, 19]: 8
- B. signalgrass plant response rating [9, 20]: 8
- B. signalgrass plant response rating [9, 21]: 9
- B. signalgrass plant response rating [9, 22]: 4
- Plant response rating, B. signalgrass [9, 23]: 8
- B. signalgrass plant response rating ([9]; Rate 500 g/ha, Postemergence, scale of 0 to 10 where 0 is no effect and 10 is complete control): 9
- Bedstraw plant response rating [10, 17]: 8
- Bedstraw plant response rating (0 to 10 scale) [10, 19]: 10
- Bedstraw plant response rating [10, 20]: 10
- Bedstraw plant response rating [10, 21]: 10
- Bedstraw plant response rating [10, 22]: 7
- Plant response rating, Bedstraw [10, 23]: 9
- Bedstraw plant response rating ([10]; Rate 500 g/ha, Postemergence, scale 0 to 10, 0 no effect, 10 complete control): 9
- Corn plant response rating [11, 17]: 5
- Corn plant response rating [11, 18]: 0
- Corn plant response rating (0 to 10 scale) [11, 19]: 5
- Corn plant response rating [11, 20]: 9
- Corn plant response rating [11, 21]: 10
- Corn plant response rating [11, 22]: 3
- Plant response rating, Corn [11, 23]: 6
- Corn plant response rating [11, 24]: 7
- Nutsedge plant response rating [12, 17]: 0
- Nutsedge plant response rating [12, 18]: 0
- Nutsedge plant response rating (0 to 10 scale) [12, 19]: 0
- Nutsedge plant response rating [12, 20]: 0
- Nutsedge plant response rating [12, 21]: 0
- Nutsedge plant response rating [12, 22]: 0
- Plant response rating, Nutsedge [12, 23]: 0
- Nutsedge plant response rating [12, 24]: 2
- S. Flatsedge plant response rating [13, 25]: 0
- S. Flatsedge plant response rating [13, 26]: 3
- S. Flatsedge plant response rating [13, 27]: 8
- Plant response rating, S. Flatsedge [13, 28]: 8
- Giant foxtail plant response rating [14, 17]: 8
- Giant foxtail plant response rating [14, 18]: 10
- Giant foxtail plant response rating (0 to 10 scale) [14, 19]: 10
- Giant foxtail plant response rating [14, 20]: 10
- Giant foxtail plant response rating [14, 21]: 10
- Giant foxtail plant response rating [14, 22]: 8
- Plant response rating, Giant foxtail [14, 23]: 9
- Giant foxtail plant response rating [14, 24]: 9
- Wheat plant response rating [15, 17]: 3
- Wheat plant response rating [15, 18]: 2
- Wheat plant response rating (0 to 10 scale) [15, 19]: 8
- Wheat plant response rating [15, 20]: 8
- Wheat plant response rating [15, 21]: 10
- Wheat plant response rating [15, 22]: 3
- Plant response rating, Wheat [15, 23]: 5
- Wheat plant response rating [15, 24]: 6
- Crabgrass plant response rating [16, 17]: 7
- Crabgrass plant response rating [16, 18]: 2
- Crabgrass plant response rating (0 to 10 scale) [16, 19]: 7
- Crabgrass plant response rating [16, 20]: 9
- Crabgrass plant response rating [16, 21]: 10
- Crabgrass plant response rating [16, 22]: 5
- Plant response rating, Crabgrass [16, 23]: 8
- Crabgrass plant response rating [16, 24]: 9
